Converted amounts (≈) assume the structure as drawn. Where two headings read alike, the source gives them in different places.
Key:
Assay in all cases: in vitro antibacterial activity, agar dilution method (MIC)
Assay type in all cases: cell-based
Pseudomonas Cepacia = settings: Burkholderia cepacia; strain 296I; BHI agar, 20-24 hours; read-out: MIC
Summary of the method: (§1)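 Agar dilution on BHI agar, typically 12 two-fold dilutions prepared from a 2,000 ug/mL stock solution. Plates were spot-inoculated with about 10^4 organisms from overnight BHI broth cultures, then incubated 20-24 h at 35°-37° C. MIC was the lowest concentration giving no growth, a slight haze or sparse isolated colonies compared with the growth control.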

Escherichia Coli = settings: Escherichia coli, BHI agar, 20-24 hours, read-out: MIC
Summary of the method: as §1

Micrococcus Luteus = settings: Micrococcus luteus, BHI agar, 20-24 hours, read-out: MIC
Summary of the method: (§2)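 Agar dilution in Brain Heart Infusion agar, usually 12 two-fold dilutions from a 2,000 ug/mL stock. Overnight BHI broth cultures were diluted 1:100 (1:10 for slow growers such as Streptococcus), and ~10^4 organisms were spotted per plate. MIC read after 20-24 h at 35°-37° C as lowest concentration giving no growth, slight haze or sparse colonies versus growth control.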

Klebsiella Pneumoniae = settings: Klebsiella pneumoniae, ATCC8045, strain ATCC 8045; BHI agar, 20-24 hours; read-out: MIC
Summary of the method: as §2

Enterococcus Faecium = settings: Enterococcus faecium, ATCC8043, strain ATCC 8043; BHI agar, 20-24 hours; read-out: MIC
Summary of the method: as §2

Streptococcus Agalactiae = settings: Streptococcus agalactiae
Summary of the method: as §2

Providencia Stuartii = settings: Providencia stuartii; strain CMX 640; BHI agar, 20-24 hours; read-out: MIC
Summary of the method: as §2

Staphylococcus Aureus = settings: Staphylococcus aureus, BHI agar, 20-24 hours, read-out: MIC
Summary of the method: as §2

Pseudomonas Aeruginosa = settings: Pseudomonas aeruginosa, BHI agar, 20-24 hours, read-out: MIC
Summary of the method: as §2

[1] = tested on: Staphylococcus Epidermidis; settings: Staphylococcus epidermidis, strain 3519; BHI agar, 20-24 hours; read-out: MIC
Summary of the method: as §2

Enterobacter Aerogenes = settings: Klebsiella aerogenes, ATCC13048, strain ATCC 13048; BHI agar, 20-24 hours; read-out: MIC
Summary of the method: as §2

Streptococcus Bovis = settings: Streptococcus equinus
Summary of the method: as §2

Streptococcus Pyogenes = settings: Streptococcus pyogenes
Summary of the method: as §2

Haemophilus Influenzae = settings: Haemophilus influenzae, BHI agar, 20-24 hours
Summary of the method: as §2

Acinetobacter Sp = settings: Acinetobacter, strain CMX 669; BHI agar, 20-24 hours; read-out: MIC
Summary of the method: as §2

[2] = strain 930 CONST, BHI agar, 20-24 hours, read-out: MIC
[3] = strain 2548 INDUC, BHI agar, 20-24 hours, read-out: MIC
[4] = ATCC9795, strain ATCC 9795, read-out: MIC

Compound: CCC1OC(=O)CC(O)C(C)C(OC2OC(C)C(O)C(N(C)C)C2O)C(CC=O)CC(C)C(N(C)C)C=CC(C)=CC1COC(C)=O (stereo not shown) [Example 4, [9R]-23-O-Acetyl-9-deoxo-9-N,N-dimethylamino-5-O-mycaminosyl-tylonide]
- MIC (Pseudomonas Cepacia): > 100 µg/mL
- MIC (Escherichia Coli; strain DC-2): 25 µg/mL (≈ 37.4 µM)
- MIC (Escherichia Coli; strain H560): 12.5 µg/mL (≈ 18.7 µM)
- MIC (Escherichia Coli; strain JUHL): 50 µg/mL (≈ 74.8 µM)
- MIC (Escherichia Coli; strain KNK 437): 50 µg/mL (≈ 74.8 µM)
- MIC (Escherichia Coli; strain SS): 0.78 µg/mL (≈ 1.17 µM)
- MIC (Micrococcus Luteus; ATCC4698, strain ATCC 4698): 0.39 µg/mL (≈ 0.583 µM)
- MIC (Micrococcus Luteus; ATCC9341, strain ATCC 9341): 0.2 µg/mL (≈ 0.299 µM)
- MIC (Klebsiella Pneumoniae): 50 µg/mL (≈ 74.8 µM)
- MIC (Enterococcus Faecium): 0.39 µg/mL (≈ 0.583 µM)
- MIC (Streptococcus Agalactiae; strain CMX 508, BHI agar, 20-24 hours, read-out: MIC): 0.1 µg/mL (≈ 0.15 µM)
- MIC (Providencia Stuartii): > 100 µg/mL
- MIC (Staphylococcus Aureus; ATCC6538P, strain ATCC 6538P): 0.78 µg/mL (≈ 1.17 µM)
- MIC (Staphylococcus Aureus; NCTC10649, strain NCTC 10649): 0.78 µg/mL (≈ 1.17 µM)
- MIC (Staphylococcus Aureus; strain 45): 0.78 µg/mL (≈ 1.17 µM)
- MIC (Staphylococcus Aureus; strain 45 RAR2): 1.56 µg/mL (≈ 2.33 µM)
- MIC (Staphylococcus Aureus; strain 642A): 1.56 µg/mL (≈ 2.33 µM)
- MIC (Staphylococcus Aureus; strain A5177): 0.78 µg/mL (≈ 1.17 µM)
- MIC (Staphylococcus Aureus; strain CMX 553): 1.56 µg/mL (≈ 2.33 µM)
- MIC (Pseudomonas Aeruginosa; strain A5007): 100 µg/mL (≈ 150 µM)
- MIC (Pseudomonas Aeruginosa; strain BMH10): 100 µg/mL (≈ 150 µM)
- MIC (Pseudomonas Aeruginosa; strain K799/61): 3.1 µg/mL (≈ 4.63 µM)
- MIC (Pseudomonas Aeruginosa; strain K799/WT): 100 µg/mL (≈ 150 µM)
- MIC [1]: 0.78 µg/mL (≈ 1.17 µM)
- MIC (Enterobacter Aerogenes): 100 µg/mL (≈ 150 µM)
- MIC (Streptococcus Bovis): ≤ 0.02 µg/mL
- MIC (Streptococcus Pyogenes; [2]): > 100 µg/mL
- MIC (Streptococcus Pyogenes; [3]): 0.78 µg/mL (≈ 1.17 µM)
- MIC (Streptococcus Pyogenes; strain EES61, BHI agar, 20-24 hours, read-out: MIC): 0.1 µg/mL (≈ 0.15 µM)
- MIC (Haemophilus Influenzae; [4]): 1 µg/mL (≈ 1.5 µM)
- MIC (Haemophilus Influenzae; ATCC10211, strain ATCC 10211): 2 µg/mL (≈ 2.99 µM)
- MIC (Haemophilus Influenzae; ATCC19418, strain ATCC 19418): 2 µg/mL (≈ 2.99 µM)
- MIC (Haemophilus Influenzae; ATCC43095, strain ATCC 43095): 2 µg/mL (≈ 2.99 µM)
- MIC (Haemophilus Influenzae; strain 503B): 2 µg/mL (≈ 2.99 µM)
- MIC (Haemophilus Influenzae; strain 504, read-out: MIC): 0.25 µg/mL (≈ 0.374 µM)
- MIC (Haemophilus Influenzae; strain 519A, read-out: MIC): 1 µg/mL (≈ 1.5 µM)
- MIC (Haemophilus Influenzae; strain 566A, read-out: MIC): 1 µg/mL (≈ 1.5 µM)
- MIC (Haemophilus Influenzae; strain 588A): 2 µg/mL (≈ 2.99 µM)
- MIC (Haemophilus Influenzae; strain 747C): 2 µg/mL (≈ 2.99 µM)
- MIC (Haemophilus Influenzae; strain 751, read-out: MIC): 8 µg/mL (≈ 12 µM)
- MIC (Haemophilus Influenzae; strain 1177, read-out: MIC): 0.25 µg/mL (≈ 0.374 µM)
- MIC (Haemophilus Influenzae; strain 1435, read-out: MIC): 1 µg/mL (≈ 1.5 µM)
- MIC (Haemophilus Influenzae; strain DILL AMP R): 2 µg/mL (≈ 2.99 µM)
- MIC (Haemophilus Influenzae; strain SOL AMP R): 2 µg/mL (≈ 2.99 µM)
- MIC (Haemophilus Influenzae; strain SPK AMP R): 2 µg/mL (≈ 2.99 µM)
- MIC (Acinetobacter Sp): 6.2 µg/mL (≈ 9.27 µM)

Compound: CCC1OC(=O)CC(O)C(C)C(OC2OC(C)CC(N(C)C)C2O)C(CC=O)CC(C)C(N(C)C)C=CC(C)=CC1COC(C)=O (stereo not shown) [Example 5, [9R]-23-O-Acetyl-9-deoxo-4'-deoxy-9-N,N-dimethylamino-5-O-mycaminosyl-tylonide]
- MIC (Pseudomonas Cepacia): > 100 µg/mL
- MIC (Escherichia Coli; strain DC-2): 6.2 µg/mL (≈ 9.5 µM)
- MIC (Escherichia Coli; strain H560): 3.1 µg/mL (≈ 4.75 µM)
- MIC (Escherichia Coli; strain JUHL): 12.5 µg/mL (≈ 19.1 µM)
- MIC (Escherichia Coli; strain KNK 437): 12.5 µg/mL (≈ 19.1 µM)
- MIC (Escherichia Coli; strain SS): 0.2 µg/mL (≈ 0.306 µM)
- MIC (Micrococcus Luteus; ATCC4698, strain ATCC 4698): 0.1 µg/mL (≈ 0.153 µM)
- MIC (Micrococcus Luteus; ATCC9341, strain ATCC 9341): 0.1 µg/mL (≈ 0.153 µM)
- MIC (Klebsiella Pneumoniae): 25 µg/mL (≈ 38.3 µM)
- MIC (Enterococcus Faecium): 0.1 µg/mL (≈ 0.153 µM)
- MIC (Streptococcus Agalactiae): 0.05 µg/mL (≈ 0.0766 µM)
- MIC (Providencia Stuartii): > 100 µg/mL
- MIC (Staphylococcus Aureus; ATCC6538P, strain ATCC 6538P): 0.39 µg/mL (≈ 0.597 µM)
- MIC (Staphylococcus Aureus; NCTC10649, strain NCTC 10649): 0.39 µg/mL (≈ 0.597 µM)
- MIC (Staphylococcus Aureus; strain 45): 0.39 µg/mL (≈ 0.597 µM)
- MIC (Staphylococcus Aureus; strain 45 RAR2): 0.78 µg/mL (≈ 1.19 µM)
- MIC (Staphylococcus Aureus; strain 642A): 0.78 µg/mL (≈ 1.19 µM)
- MIC (Staphylococcus Aureus; strain A5177): 0.39 µg/mL (≈ 0.597 µM)
- MIC (Staphylococcus Aureus; strain CMX 553): 0.78 µg/mL (≈ 1.19 µM)
- MIC (Pseudomonas Aeruginosa; strain A5007): > 100 µg/mL
- MIC (Pseudomonas Aeruginosa; strain BMH10): 100 µg/mL (≈ 153 µM)
- MIC (Pseudomonas Aeruginosa; strain K799/61): 1.56 µg/mL (≈ 2.39 µM)
- MIC (Pseudomonas Aeruginosa; strain K799/WT): > 100 µg/mL
- MIC [1]: 0.39 µg/mL (≈ 0.597 µM)
- MIC (Enterobacter Aerogenes): 50 µg/mL (≈ 76.6 µM)
- MIC (Streptococcus Bovis; strain A5169, BHI agar, 20-24 hours): 0.05 µg/mL (≈ 0.0766 µM)
- MIC (Streptococcus Pyogenes): 0.05 µg/mL (≈ 0.0766 µM)
- MIC (Streptococcus Pyogenes; [2]): 50 µg/mL (≈ 76.6 µM)
- MIC (Streptococcus Pyogenes; [3]): 0.2 µg/mL (≈ 0.306 µM)
- MIC (Haemophilus Influenzae; [4]): 2 µg/mL (≈ 3.06 µM)
- MIC (Haemophilus Influenzae; ATCC10211, strain ATCC 10211, read-out: MIC): 2 µg/mL (≈ 3.06 µM)
- MIC (Haemophilus Influenzae; ATCC19418, strain ATCC 19418, read-out: MIC): 2 µg/mL (≈ 3.06 µM)
- MIC (Haemophilus Influenzae; ATCC43095, strain ATCC 43095, read-out: MIC): 2 µg/mL (≈ 3.06 µM)
- MIC (Haemophilus Influenzae; strain 503B, read-out: MIC): 2 µg/mL (≈ 3.06 µM)
- MIC (Haemophilus Influenzae; strain 504, read-out: MIC): 1 µg/mL (≈ 1.53 µM)
- MIC (Haemophilus Influenzae; strain 519A, read-out: MIC): 1 µg/mL (≈ 1.53 µM)
- MIC (Haemophilus Influenzae; strain 566A, read-out: MIC): 4 µg/mL (≈ 6.13 µM)
- MIC (Haemophilus Influenzae; strain 588A, read-out: MIC): 2 µg/mL (≈ 3.06 µM)
- MIC (Haemophilus Influenzae; strain 632A, read-out: MIC): 2 µg/mL (≈ 3.06 µM)
- MIC (Haemophilus Influenzae; strain 667A, read-out: MIC): 2 µg/mL (≈ 3.06 µM)
- MIC (Haemophilus Influenzae; strain 747C, read-out: MIC): 2 µg/mL (≈ 3.06 µM)
- MIC (Haemophilus Influenzae; strain 751, read-out: MIC): 4 µg/mL (≈ 6.13 µM)
- MIC (Haemophilus Influenzae; strain 1177, read-out: MIC): 0.12 µg/mL (≈ 0.184 µM)
- MIC (Haemophilus Influenzae; strain 1435, read-out: MIC): 1 µg/mL (≈ 1.53 µM)
- MIC (Haemophilus Influenzae; strain DILL AMP R, read-out: MIC): 2 µg/mL (≈ 3.06 µM)
- MIC (Haemophilus Influenzae; strain SOL AMP R, read-out: MIC): 2 µg/mL (≈ 3.06 µM)
- MIC (Haemophilus Influenzae; strain SPK AMP R, read-out: MIC): 2 µg/mL (≈ 3.06 µM)
- MIC (Acinetobacter Sp): 3.1 µg/mL (≈ 4.75 µM)

Reference: US5140014A (Abbott Laboratories, priority 1989, dated 1992)
